From US10724100B2, “Systems and methods for treating patients having a genetic predisposition to develop prostate cancer” (Institute for Cancer Research, priority 2015, dated 2020) come the findings set out here.

The test system of the assay is peripheral blood lymphocytes (PBLs) of prostate cancer patients and matched controls. Briefly: γH2AX foci immunofluorescence in PHA/IL-2-stimulated peripheral blood lymphocytes after DNA damaging agents. The assay is classed as cell-based, human. The settings on record: PBLs from 9 patients and 10 age- and gender-matched controls; 10 μM aphidicolin or 25 μM etoposide; fixed 2 hours later; p=0.0337 (aphidicolin), p=0.007 (etoposide).

SMILES strings stand for the structures.

Description: Peripheral blood lymphocytes (PBLs) were available from 9/12 of the exome sequenced patients and 10 age-matched and gender-matched individuals without a cancer diagnosis or a family history of cancer. […] For analysis of DDR, cells were cultured in RPMI-1640 containing 15% fetal bovine serum (HyClone Laboratories, Logan, Utah), 2 mM L-glutamine (Life Technologies, Grand Island, N.Y.), 50 μM 2-mercaptoethanol (Sigma-Aldrich, St. Louis, Mo.), 0.2 units human recombinant insulin (Sigma) per ml, 50 units penicillin and 50 mg streptomycin per ml (complete RPMI), and then stimulated with phytohemagglutinin (PHA)-M (Life Technologies, Grand Island, N.Y.) and recombinant human interleukin 2 (IL-2) (NCI Preclinical Repository) for 72 hours. […] For immunofluorescence, cells were allowed to attach to poly-d-lysine-coated 96-well plates, stained with anti-γH2AX antibody (#05-636, Millipore, Temecula, Calif.). Sixteen images per well were acquired at 20× (with each image acquired in 2 channels to detect γH2AX with TRITC and total DNA with DAPI) utilizing the ImageXpress micro automated microscope (Molecular Devices, Sunnyvale, Calif.) driven by MetaXpress software. […]

For the molecule `C[C@@]1(CO)[C@H](O)CC[C@@]2(C)[C@H]1CC[C@H]1C[C@@H]3C[C@@]12CC[C@]3(O)CO` [aphidicolin], the “γH2AX induction (nuclear γH2AX foci per cell), cases versus controls” value is “higher magnitude of induction seen in prostate cancer patients”.
